This passage reports melting point results from a melting point compilation (Tetko et al.; mined from patent text by program, amines drawn as free bases though some values may be those of a salt).

As a reminder, the melting point is the temperature of the solid-liquid transition. Compound `CCOC(=O)c1ccc(Cl)nc1OCC` yielded a melting point of 33 to 35 °C.
`O=c1nc(-c2ccccc2F)c2ccccc2[nH]1`: the melting point was 281 to 285 °C.
`O=c1[nH]c2cc(Cl)ccc2c(O)c1-c1ccc(OCc2ccccc2)cc1` yielded a melting point of over 350 °C.
The result for `CC1CC(=O)NN=C1c1ccc(CCCCN)cc1` (centres undefined) reads 135 to 137 °C; that for `CC1=Nc2c(C)nn(C)c2C2=NC(C)C(C)N12` (centres undefined), 280 °C.
With `CC(=O)c1ccc(S(=O)(=O)Nc2nnn[nH]2)cc1` the figure was 150 to 151 °C; with `Nc1ccc(C=C2c3ccccc3C=Cc3ccccc32)cc1`, 119 to 120 °C.
`COC(=O)c1ccc(Cl)c(C)c1N`: the melting point lay in the range of 72 to 74 °C.
Turning to `O=C(CC12CC3CC(CC(C3)C1)C2)Nc1cc(O)ccc1Cl`, the melting point was 224 to 225 °C.
`COc1ccc2c(n1)CC(=O)N2CCCBr` showed a melting point of 82 to 83 °C.
For the compound `CN(C)c1ccc(C=NO)c([N+](=O)[O-])c1`, the melting point fell in the range of 140 to 143 °C.
With `Cc1ccc(C(=O)O)c(S(C)(=O)=O)c1` the figure was 174 °C; with `Cc1ccccc1-c1ccc(C(=O)O)cc1C`, 140 to 143 °C.
The result for `CCC(=O)Nc1cccc2c1CCC(NC(=O)CC)C2` (centres undefined) reads 270 °C; that for `CCCn1c(COCC)nc2c(N)nc3ccc(OCCNC(=O)C4CCCO4)cc3c21` (centres undefined), 202 to 204 °C.
For `Cc1nc(N2CCCC2C)c2nc(-c3ccccc3)cc-2[nH]1` (centres undefined), the melting point lay within 219 to 221 °C.
For `COC(=O)COc1ccc(CC2SC(=O)NC2=O)cc1` (centres undefined), the melting point lay in the range of 100 to 106 °C.
The result for `Nc1c(Br)cc(O)c2c1C(=O)c1ccccc1C2=O` reads 226 to 228 °C.
In turn, `O=C(C1Oc2ccccc2OC1c1ccccc1)N1CCOCC1` (centres undefined) showed a melting point of 148 to 150 °C.
The compound `CC(C)C=CC(CC1CCCCC1)NC(=O)OC(C)(C)C` (racemic) yielded a melting point of 74 °C.
As for `NC(=S)NC1CCCc2sccc21` (centres undefined), the melting point was 129 to 131 °C.
`O=C1Nc2ccc(F)c(F)c2C(=O)N2CCC[C@@H]12` registered a melting point of over 250 °C.
Consider `O=C(O)c1c[nH]c2cc(C(F)(F)F)nn2c1=O`, for which the melting point is over 340 °C.
`COCc1ccc(-c2cn(-c3cc(C(=O)OC)c(NO)cc3C(F)(F)F)cn2)cc1` displayed a melting point of 252 to 257 °C.
`COC(=O)Cc1ccc(C(C)=O)cc1` had a melting point of 44 °C.
The result for `CCc1cc(-c2ccccc2OC)n2nc(Nc3ccc(N4CCN(C)CC4)cc3)ncc12` reads 154 to 156 °C; that for `CC(=O)C(C(=O)N(CCN(C)C)c1ccccc1)=C(N)c1ccccc1`, 81 to 83 °C; that for `NC(=O)CNC(=O)c1cccc(-c2cccc3nc(Oc4cccc(C(F)(F)F)c4)sc23)c1`, 203 to 204 °C.
The result for `COc1ccc(C=Cc2c(Cl)cncc2Cl)c2c1CC1(CCCC1)O2` reads 99 to 101 °C; that for `CC(C)(C)c1cc(C(=O)c2ccc(Cl)cc2)cc(CN2CCOCC2)c1O`, 165 to 166 °C; that for `CCOC(=O)COc1ccc2c(c1)C(=O)CCC2`, 84 to 86 °C.
`COc1cc(-c2ncn(C)c2-c2ccc3c(c2)NCCO3)cc(OC)c1OC` came in with a melting point of 160 to 162 °C.
Consider `CCSc1ccc2cc(C(C)=O)ccc2c1`, for which the melting point worked out at 69 °C.
Turning to `CCOC(=O)C(C)(C)Oc1ccc(-c2ccc(CCNC(=O)c3cc(OC)cc(OC)c3)cc2)cc1`, the melting point stood at 74 °C.
With `COc1cc(C)nc(-c2ccc(C=O)cc2)n1`, the melting point was in the range of 125 to 126 °C.
Consider `CSC(SC)=C(C(O)C(C)(C)C)n1cncn1` (centres undefined), for which the melting point was in the range of 108 to 111 °C.
Consider `Cc1cc(C)c(C(=O)Oc2ccccc2)c(O)c1C`, for which the melting point amounted to 74 °C.
In turn, `C[C@@H](OC(=O)N1C(C)(C)COC1(C)C)C(C)(C)O` had a melting point of 53 °C.
`CCN(CC)CC(O)c1cccc2ccoc12` (centres undefined) returned a melting point of 116 °C.
The result for `CCCCCCSCCSc1nc(N)n[nH]1` reads 76.5 to 78 °C.
As to `CC(C#N)(NC(=O)c1c(Cl)cccc1Cl)c1ncc(C(F)(F)F)cc1Cl` (centres undefined), the melting point is 166 to 167 °C.
`CCC(C)(C)c1c[nH]cn1` yielded a melting point of 95 to 96 °C.
In the case of `Cc1cccc2ncc(C(=O)NC(C)(C)CC(C)(C)C)c(=O)n12`, the melting point is 126 to 129 °C.
In turn, `O=C(Nc1nc(C(Cl)(Cl)Cl)ns1)C(Cl)(Cl)Cl` registered a melting point of 158 °C.
As for `CCOC(=O)Cc1nc(-c2ccc(Cl)cc2)oc1Oc1ccc(Cl)cc1`, the melting point lay within 70 to 72 °C.
In turn, `CC(C)Oc1ccc(OC(=O)c2ccc(C(=O)Oc3ccc(OC(C)C)cc3)cc2)cc1` registered a melting point of 192 to 194 °C.
The result for `CCn1cc(C(=O)O)c(=O)c2cc(F)c(N3CCNC(c4ccc(C)o4)C3)cc21` (centres undefined) reads 186 to 188 °C.
`CCCOc1ccccc1-c1nc(NC(=O)CCC)cc(=O)[nH]1` returned a melting point of 177 to 178 °C.
With `CCCCn1nc2c(N)nc3ccccc3c2c1CC(C)(C)O`, the melting point is 130 °C.
`COc1ccc(Oc2nccnc2Cl)cc1` displayed a melting point of 62 to 64 °C.
With `CCCCCCCCOc1ccc(C(=O)OC)c(O)c1`, the melting point is 46 to 47 °C.
The result for `Nc1cn(-c2cccnc2)nc1C(F)(F)F` reads 112 to 115 °C; that for `CC(C)(C)OC(=O)N[C@H]1CCCCNC1=O`, 147 to 149 °C.
With `O=C(NC(Cc1ccccc1)C(=O)O)c1ccccc1` (centres undefined) the figure was 183 to 184 °C; with `CCCCC(=O)N1CCC(c2nc(-c3ccc(-c4ccccc4)cc3)c[nH]2)CC1`, 215 to 216 °C; with `Cc1ccc(-n2nc3c(cc2=O)CCc2sc(CO)cc2-3)cc1`, 166 to 169 °C.
Regarding `CC(=O)NCC1CN(c2ccc(N3CCC(C)(O)C(C)(C)C3)c(F)c2)C(=O)O1` (centres undefined), the melting point lay in the range of 114 to 116 °C.
On to `CN(c1cccc2cc(C(=O)NCC3(SCc4ccccc4)CCN(C(=O)OC(C)(C)C)CC3)[nH]c12)S(=O)(=O)c1cccs1`, for which the melting point is 195 to 197 °C.
`NC(=O)c1nc(-c2cncc(Cl)c2)nc2c1[nH]c(=O)n2-c1ccccc1C(F)(F)F` displayed a melting point of 230 to 232 °C.
With `Cn1ncc(C(=O)N2CCOCC2)c1C(=O)Nc1ccn2nc(-c3ccnc(F)c3)nc2c1` the figure was over 280 °C; with `CC(C)(C)[C@H](O)[C@@H](C#N)c1ccccc1` (racemic), 70.7 to 71.2 °C; with `Cc1cccc(Nc2cc(Cl)nc(Cl)n2)c1C`, 204 to 206 °C.
In turn, `CC(CNc1c(C(=O)O)cccc1[N+](=O)[O-])NCc1ccccc1` (centres undefined) came in with a melting point of 227 °C.
The compound `CC(=O)c1cc(Nc2cc(C)nc(N)n2)cc(C(C)=O)c1` yielded a melting point of 240 to 241 °C.
For the compound `N#Cc1c(C(F)(F)F)nn(-c2c(Cl)cc(C(F)(F)F)cc2Cl)c1N(C(=O)C1CC1)C(=O)C1CC1`, the melting point is 126 to 127 °C.
As for `Cn1c([N+](=O)[O-])cnc1COc1ccc(SC#N)cc1`, the melting point was 140 °C.
Turning to `N#CCOC(=O)C=Cc1cc2ccccc2o1`, the melting point lay in the range of 119 to 121 °C.
On to `CC1=C(C(=O)OC(C)C)C(c2cccc([N+](=O)[O-])c2)N(C(=O)OC(C)C)C(=S)N1` (centres undefined), for which the melting point came out at 138 °C.
`CN(C)c1ccc2cc(-c3ccnc(Cl)c3C#N)ccc2c1` showed a melting point of 198 to 200 °C.
In turn, `COC(=O)c1ccc2ccc(S(=O)(=O)N(Cc3ccccc3)Cc3ccccc3)cc2c1` yielded a melting point of 141 to 142 °C.
With `O=C(NN=Cc1ccccc1)c1ccc(O)cc1` the figure was 226 °C; with `O=C(NC(=O)c1c(F)cccc1F)Nc1ccc(Oc2cccc3ccccc23)nc1`, 224 °C.
In turn, `CC1=C(CC(NC(=O)c2ccc(Cl)cc2)NC(=NC#N)Nc2cccnc2)C(C)(C)CCC1` (centres undefined) yielded a melting point of 95 to 96 °C.
`Cc1ccccc1C(=O)Nc1ccc(C(=O)N2Cc3ccnn3Cc3ccccc32)cc1`: the melting point is 142 to 146 °C.
Turning to `O=C/C=C/c1cc2ccccc2s1`, the melting point was found to be 88 °C.
As for `CCCCCCCCCCCCCCCCNc1ccc(C(=O)OCCCO)cc1`, the melting point was 67 to 69 °C.
For the compound `Cc1cccc(C)c1C(=O)c1nc[nH]c1C`, the melting point was 179 to 181 °C.
On to `CCCCCCCCCCOc1cc(OCCCCCCCCCC)cc(C(=O)OC)c1`, for which the melting point is 52 to 53 °C.
With `O=C(O)CCCCOc1ccc(N2CCN(c3ccncc3)CC2)cc1` the figure was 237 to 241 °C; with `Cc1ncc(-c2ccc([C@H](C)N3CC[C@](CCCO)(c4ccc(F)cc4)OC3=O)cc2)cn1`, 166 to 168 °C.
Consider `CNc1nc(-c2cccc(NC(=O)c3cccc(Cl)c3)c2)c2cc(OC)c(OC)cc2n1`, for which the melting point was in the range of 124 to 126 °C.
Consider `CC(=O)NC[C@H]1CN(c2ccc3c(c2)OCC(C)N3)C(=O)O1` (some centres undefined), for which the melting point fell in the range of 163 to 165 °C.
Regarding `CNC(=O)CCC(=NNC(N)=S)c1ccccc1`, the melting point was 205 to 207 °C.
`CCOC(=O)Nc1ccc(-n2ccc(C#N)c2)c(F)c1` gave a melting point of 188 to 190 °C.
The result for `CC1c2ccccc2CCC1CC#N` (centres undefined) reads under 20 °C; that for `COC[C@H]1CN(c2ccc([C@H]3CC[C@H](OCSC)CC3)cc2)C(=O)O1`, 54 to 56 °C; that for `CN(C)CCOc1ccc(-c2nnc(CSCCOc3ccccc3)o2)cc1`, 62 to 64 °C.
`O=C(O)C1=NOC2(CCC(C3CCCCC3)CC2)C1` (centres undefined): the melting point was 139 to 142 °C.
In turn, `CC(c1cc(Cl)cc(Cl)c1O)c1cc(F)cc(Cc2cc(Cl)cc(Br)c2O)c1O` (centres undefined) gave a melting point of 171 °C.
Consider `COC(=O)c1nn(Cc2ccccc2)c2ccccc12`, for which the melting point is 72 to 73 °C.
Take `COc1cc2c(cc1Nc1ncc(Cl)c(Nc3ccccc3OC)n1)CCN(CC(=O)N(C)C)CC2`: the melting point is 65 to 85 °C.
Compound `CC(C)(C)NC(=O)[C@H](Cc1ccc([N+](=O)[O-])cc1)NC(=O)OC(C)(C)C` gave a melting point of 158 to 159 °C.
With `O=C1CC(=O)C(C2CCCSC2)CO1` (centres undefined), the melting point lay within 91 to 93 °C.
Consider `CCOC(=O)c1cnc(-c2ccccc2OC(C)C)[nH]c1=O`, for which the melting point lay within 123 to 124 °C.
